Source: publication PMC10587126, “Molecular hybridization strategy for tuning bioactive peptide function” (Communications Biology, 2023)
No end group written: not given here.

How the values were obtained:
[1] = system: MCF-7 human breast cancer cells; assay: MTT assay, anticancer activity; assay type: cell-based; settings: 37 °C; for MCF-7 4 h LD50: 4 h of incubation; for MCF-7 24 h LD50: 24 h of incubation
Procedure: The anticancer activity assays were performed using MCF-10A human breast epithelial cells and MCF-7 mammary cancer cells as previously described by Pedron et al.[78]. Briefly, the day before treatment, the cells were incubated at 37 °C and 5% CO2 for 24 h. The cells were treated with peptides ranging from 12.5 to 100 μmol L^−1 (MCF10-A cells) and 0.8 to 100 μmol L^−1 (MCF-7 cells) for 4 h and 24 h at 37 °C, and cell viability was measured using 3-(4,5-Dimethylthiazol-2-yl)-2,5-diphenyltetrazolium bromide (MTT) assays[79],[80]. Three independent replicates were performed in each case.

[2] = Mouse body weight in the skin abscess infection model; assay type: in vivo
Procedure: The anti-infective activity of the peptides VmCT1, temporin A, VT, and TV against A. baumannii ATCC 19606 was evaluated as described by Torres et al.[7],[83] Bacteria were grown in tryptic soy broth medium to an optical density of 0.5 at 600 nm. Cells were washed twice with sterile phosphate-buffered saline (pH 7.4, 13,000 rpm for 1 min) and resuspended to a final concentration of 1 × 10^7 CFU/20 μL. To generate the skin infection, female CD-1 mice (6-weeks-old) were first anesthetized with isoflurane and their backs were shaved. Using a needle, a superficial linear abrasion was made on the shaved area of the mice to injure just the stratum corneum and the upper layer of the epidermis. An aliquot of 20 μL containing 1 × 10^7 CFU of A. baumannii was then inoculated over the wound area with a pipette tip. The next day, the infected area was treated with the peptides (i.e., VmCT1, temporin A, VT, and TV), which were administered onto the abscess at their MIC. The animals were euthanized, and the scarified skin area removed 2- and 4-days post-infection. The excised area was homogenized using a bead beater for 20 min (25 Hz) and serially diluted for CFU quantification. Eight mice were used per group (n = 8). All experiments were performed in accordance with protocol 806763 approved by the IACUC at the University of Pennsylvania.

[3] = Resistance to proteolytic degradation in fetal bovine serum; assay type: in vitro ADME; settings: 25% fetal bovine serum in water, 37 °C
Procedure: Stability assays were performed following the protocol described by Torres et al.[67]. Briefly, a peptide solution was added to GIBCO fetal bovine serum diluted to 25% in water and kept at 37 °C. The degradation kinetics were monitored by liquid chromatography and the percentage of peptide remaining in each case was calculated by integrating the peptide peak area. These experiments were performed as three independent replicates, and aliquots were taken at 0, 0.5, 1, 2, 4, and 6 h.

human erythrocytes = assay: Hemolytic activity; assay type: cell-based; settings: 0.1–100 μmol L^−1 in PBS, room temperature, 1 h, absorbance 405 nm
Procedure: Assays against freshly collected human erythrocytes were performed following protocols described by Pedron et al.[54]. Briefly, peptide aliquots at concentrations ranging from 0.1 to 100 μmol L^−1 were incubated with a suspension of erythrocytes at room temperature for 1 h. The samples were then centrifuged, and the absorbance of the supernatant was measured at 405 nm. […] The surfactant SDS and PBS buffer were used as positive[81],[82] and negative controls, respectively. Sodium heparin was used as an anticoagulant when collecting human blood. Three biological repeats were performed. All experiments were performed in accordance with the protocol CEUA/IB #I-1345/15 approved by the Instituto Butantan.

[4] = system: Pseudomonas aeruginosa PAO1; assay: Broth microdilution MIC, ESKAPE pathogens; assay type: cell-based; settings: strain not given (PAO1 and PA14 tested), LB, 37 °C, 24 h
Procedure: Peptides were tested in antimicrobial assays against Serratia marcescens ATCC 4112, Enterobacter cloacae β-12, Micrococcus luteus A270, Bacillus megaterium ATCC 10778, Bacillus subtilis ATCC 6633, Candida albicans MDM8, Candida tropicalis IOC 4560, Acinetobacter baumannii ATCC 19606, Escherichia coli ATCC 11775, Escherichia coli AIC221, Escherichia coli AIC222, Klebsiella pneumoniae ATCC 13883, Staphylococcus aureus ATCC 12600, Pseudomonas aeruginosa PAO1, and Pseudomonas aeruginosa PA14. All microorganisms were obtained from the American Type Culture Collection (ATCC), Instituto Butantan, São Paulo, Brazil, and the clinical isolate strains were donated from the Oswaldo Cruz Institute Collection (IOC), Rio de Janeiro, Brazil.
The minimal inhibitory concentration (MIC) against the ESKAPE pathogens was determined using the broth microdilution method[7] in Luria-Bertani (LB) medium. The MIC value was defined as the lowest concentration of peptide at which no microbial growth was observed. A. baumannii ATCC 19606, E. coli ATCC 11775, E. coli AIC221, E. coli AIC222, K. pneumoniae ATCC 13883, S. aureus ATCC 12600 P. aeruginosa PAO1, and P. aeruginosa PA14 were incubated on agar plates, and after 24 h, three isolated colonies were inoculated to 5 mL of Luria-Bertani (LB) broth and maintained at 37 °C overnight with shaking. Peptides were then added to 96-well polystyrene microtiter plates at concentrations ranging from 0 to 128 μmol L^−1, and 5 × 10^5 CFU mL^−1 of each bacterium was inoculated in each well. The plates were incubated at 37 °C for 24 h. Bacterial growth was measured using a microplate reader at 610 nm. Three independent replicates were performed.

[5] = LC peak area, time 0 = 100, 0.5 h, replicate 1
[6] = LC peak area, time 0 = 100, 0.5 h, replicate 2
[7] = LC peak area, time 0 = 100, 1 h, replicate 1
[8] = LC peak area, time 0 = 100, 1 h, replicate 2
[9] = LC peak area, time 0 = 100, 1 h, replicate 3
[10] = LC peak area, time 0 = 100, 2 h, replicate 1
[11] = LC peak area, time 0 = 100, 2 h, replicate 2
[12] = LC peak area, time 0 = 100, 2 h, replicate 3
[13] = LC peak area, time 0 = 100, 4 h, replicate 1
[14] = LC peak area, time 0 = 100, 4 h, replicate 2
[15] = LC peak area, time 0 = 100, 4 h, replicate 3
[16] = LC peak area, time 0 = 100, 6 h, replicate 1
[17] = LC peak area, time 0 = 100, 6 h, replicate 2
[18] = LC peak area, time 0 = 100, 6 h, replicate 3
[19] = LC peak area, time 0 = 100, 0.5 h, replicate 3

Substance | MCF-7 4 h LD50 [1] [µmol/L] | MCF-7 24 h LD50 [1] [µmol/L] | Peptide remaining [3, 5] | Peptide remaining [3, 6] | Peptide remaining [3, 7] | Peptide remaining [3, 8] | Peptide remaining [3, 9] | Peptide remaining [3, 10] | Peptide remaining [3, 11] | Peptide remaining [3, 12] | Peptide remaining [3, 13] | Peptide remaining [3, 14] | Peptide remaining [3, 15] | Peptide remaining [3, 16] | Peptide remaining [3, 17] | Peptide remaining [3, 18] | Hemolytic activity (concentration of peptide needed to kill 10% of red blood cells) (human erythrocytes) [µmol/L] | Peptide remaining [3, 19] | MIC against P. aeruginosa [4] [µM] | other results
FLPLIGRVLSGIL-NH2 [Temporin A, reference compound] | 50 | 50 | 0 | 0 | 0 | 0 | 0 | 0 | 0 | 0 | 0 | 0 | 0 | 0 | 0 | 0 | 0.2 |  |  | Mouse body weight, normalized to the weight at the beginning of the experiment ([2]; day 0 = 100, Day 1, replicate 1): 95; Mouse body weight, normalized to the weight at the beginning of the experiment ([2]; day 0 = 100, Day 1, replicate 2): 105; Mouse body weight, normalized to the weight at the beginning of the experiment ([2]; day 0 = 100, Day 1, replicate 3): 100; Mouse body weight, normalized to the weight at the beginning of the experiment ([2]; day 0 = 100, Day 2, replicate 1): 95; Mouse body weight, normalized to the weight at the beginning of the experiment ([2]; day 0 = 100, Day 2, replicate 2): 100; Mouse body weight, normalized to the weight at the beginning of the experiment ([2]; day 0 = 100, Day 2, replicate 3): 100; Mouse body weight, normalized to the weight at the beginning of the experiment ([2]; day 0 = 100, Day 3, replicate 1): 95; Mouse body weight, normalized to the weight at the beginning of the experiment ([2]; day 0 = 100, Day 3, replicate 2): 100; Mouse body weight, normalized to the weight at the beginning of the experiment ([2]; day 0 = 100, Day 3, replicate 3): 95; Mouse body weight, normalized to the weight at the beginning of the experiment ([2]; day 0 = 100, Day 4, replicate 1): 95; Mouse body weight, normalized to the weight at the beginning of the experiment ([2]; day 0 = 100, Day 4, replicate 2): 100; Mouse body weight, normalized to the weight at the beginning of the experiment ([2]; day 0 = 100, Day 4, replicate 3): 95; Peptide remaining after 30 min ([3]; LC peak area vs time 0, 30 min, three replicates): totally degraded; remaining at 0.5 h ([3]; fetal bovine serum, 25% in water, LC peak area, time 0 = 100, 0.5 h, replicate 3, read-out: Peptide remaining): 0%
FLGTLWGGAKGVF-NH2 [VP] |  |  | 24.2 | 22.1 | 14.7 | 16.0 | 11.8 | 3.6 | 3.6 | 4.4 | 0.0 | 0.0 | 0.0 | 0.0 | 0.0 | 0.0 | 100 | 20.2 | 128 | 
ILGTILGLLKGL-NH2 [Protonectin, reference compound] | 25 | 25 | 0.0 | 0.0 |  | 0.0 | 0.0 | 0.0 | 0.0 | 0.0 | 0.0 | 0.0 | 0.0 | 0.0 | 0.0 | 0.0 | 12.5 | 0.0 | 128 | Degradation in fetal bovine serum (in words) ([3]; exposure for 6 h, LC): quickly degraded; remaining at 1 h ([3]; fetal bovine serum, 25% in water, LC peak area, time 0 = 100, 1 h, replicate 1, read-out: Peptide remaining): 0%
ILGAILNVLKSLG-NH2 [PV] |  |  | 98 | 85 | 0 | 0 | 0 | 0 | 0 | 0 | 0 | 0 | 0 | 0 | 0 | 0 | 25 | 88 | 128 | Peptide remaining after 1 h ([3]; LC peak area vs time 0, 1 h, three replicates): totally degraded
